Laboratory results taken from patent US20260265699A1, “STANDARDISING PLURIPOTENT STEM CELLS” (United Kingdom Research and Innovation, priority 2023, published 2026).
“Also recorded” adds a separate entry of the source.

What was measured:
Format in all cases: cell-based, human
PS cells = test: PSC basal (maintenance) culture; conditions: inhibition of SRC at basal culture, prolonged exposure
Text: (§1) The so called “unguided protocol” relies on the natural propensity of PSCs to differentiate to neural fate and specifically forebrain when not exposed to any growth factors. The inventors cultured PSCs in Stemflex (Thermo) medium on plates coated with Matrigel growth factor reduced (Corning) and for generation of brain organoids they used STEMdiff Cerebral Organoid Kit (Stemcell Technologies). Despite these highly standardised conditions (FIG. 1A), the outcome of the protocol (i.e. the identity and quality of the tissues produced) can vary depending on the cell line that was used in the protocol or even between different batches of the same line (FIGS. 1 B and C). This makes producing good quality organoids from different lines difficult and unpredictable. To address this variability that plagues not only the neural organoid field but also others that rely on 2D and 3D differentiation to a variety of cell types, the inventors investigated the potential sources of this variability in PSCs and potential treatments to address this problem or, in other words, to standardise the performance of PSCs during differentiation.
There is a huge body of literature describing potential sources of PSC variability and a similar number of publications about ways to address this in a particular context, for example to increase efficiency of differentiation towards a certain tissue type. […]

[1] = test system: PSC lines that did not readily differentiate into neural tissue; test: Cerebral organoid differentiation, unguided protocol (STEMdiff Cerebral Organoid Kit), panel of bad differentiator lines; conditions: for Effect: organoid morphology: inhibition of Wnt at organoid stage, added at embedding stage
Text: The so called “unguided protocol” relies on the natural propensity of PSCs to differentiate to neural fate and specifically forebrain when not exposed to any growth factors. The inventors cultured PSCs in Stemflex (Thermo) medium on plates coated with Matrigel growth factor reduced (Corning) and for generation of brain organoids they used STEMdiff Cerebral Organoid Kit (Stemcell Technologies). […] To address this variability that plagues not only the neural organoid field but also others that rely on 2D and 3D differentiation to a variety of cell types, the inventors investigated the potential sources of this variability in PSCs and potential treatments to address this problem or, in other words, to standardise the performance of PSCs during differentiation.
Because neural differentiation represents the default program upon pluripotency exit, the ability of a cell line to undergo such unguided differentiation is also a good indication of their pluripotent state. The other approach was to in depth characterise PSC lines that either produce good or bad organoids by proteomics and phosphoproteomics, analysis of already available bulk RNAseq data to learn about their transcriptome, and by ATACseq to learn about open chromatin patterns. […] Based on the combination of information gathered from both approaches, a number of treatments were chosen to test on the bad differentiators.

sojd3 cells = test: Cerebral organoid differentiation, unguided protocol, sojd3 line; conditions: inhibition of Wnt in culture, Stemflex with 2-3 μM IWP2, long term (>8 passages)
Text: (§2) The so called “unguided protocol” relies on the natural propensity of PSCs to differentiate to neural fate and specifically forebrain when not exposed to any growth factors. The inventors cultured PSCs in Stemflex (Thermo) medium on plates coated with Matrigel growth factor reduced (Corning) and for generation of brain organoids they used STEMdiff Cerebral Organoid Kit (Stemcell Technologies). Despite these highly standardised conditions (FIG. 1A), the outcome of the protocol (i.e. the identity and quality of the tissues produced) can vary depending on the cell line that was used in the protocol or even between different batches of the same line (FIGS. 1 B and C). This makes producing good quality organoids from different lines difficult and unpredictable. To address this variability that plagues not only the neural organoid field but also others that rely on 2D and 3D differentiation to a variety of cell types, the inventors investigated the potential sources of this variability in PSCs and potential treatments to address this problem or, in other words, to standardise the performance of PSCs during differentiation. […]
(§3) To establish such an approach, the inventors analysed the epigenetic state of human pluripotent stem cells and the role of epigenetics in development. […]

burb1 cells = test: Cerebral organoid differentiation, unguided protocol, burb1 line
Text: as §2, §3

fiaj1 cells = test: Cerebral organoid differentiation, unguided protocol, fiaj1 line; conditions: fiaj 1
Text: as §1
(§4) Because neural differentiation represents the default program upon pluripotency exit, the ability of a cell line to undergo such unguided differentiation is also a good indication of their pluripotent state. […]

[2] = test system: kolf2 cells (organoid non-competent batch); test: Cerebral organoid differentiation, unguided protocol, bad batch of kolf2; conditions: generation of organoids with MEK inhibition
Text: as §1, §4

**Q.** How did the “Effect on PS cells in basal culture” value (PS cells) turn out when `COc1cccc(-c2cn(-c3ccc(CCN4CCC(O)CC4)cc3)c3ncnc(N)c23)c1` [CGP-77675] was run?
**A.** outcome, differentiation of PS

**Q.** What about the “Effect: organoid differentiation outcome” value ([1]; inhibition of SRC at basal culture) of the same molecule?
**A.** Worse organoid differentiation

**Q.** For `Cc1ccc2nc(NC(=O)CSc3nc4c(c(=O)n3-c3ccccc3)SCC4)sc2c1` [IWP2], which “Effect: organoid generation / brain organoid competency” value (sojd3 cells) is on record?
**A.** did not improve; also recorded: no improvement in sojd3

**Q.** And the “Effect: organoid generation / brain organoid competency” value (burb1 cells; inhibition of Wnt in culture, Stemflex with 2-3 μM IWP2, long term (>8 passages))?
**A.** able to restore organoid competency; also recorded: acquired brain organoid competency; also recorded: improved organoid

**Q.** And the “Effect: organoid morphology” value [1]?
**A.** embedding stage improve

**Q.** recombinant human laminin 521 [L521] was tested. Which “Effect: organoid generation” value (burb1 cells; PSC culture on L521) did it give?
**A.** improved organoid generation

**Q.** And the “Effect: organoid differentiation” value (fiaj1 cells; culture on L521 micropatterns, areas of correct differentiation a small percentage of organoid volume)?
**A.** worked to some extent in fiaj 1

**Q.** Which “Effect: organoid differentiation outcome” value ([1]; inhibition of SRC at organoid generation, alone) does the source give for `COc1ccc(N(C(=O)Oc2c(C)cccc2C)c2ccnc(Nc3ccc(N4CCN(C)CC4)cc3)n2)c(OC)c1` [WH-4-023] here?
**A.** no improvement alone,

**Q.** And the “Effect: organoid differentiation outcome” value ([1]; inhibition of SRC at organoid generation, used alongside with HRG)?
**A.** improves outcome when used

**Q.** With `O=C(NOC[C@H](O)CO)c1ccc(F)c(F)c1Nc1ccc(I)cc1F` [PD0325901] as the molecule, how does the “Effect: improvement of organoid differentiation” value (fiaj1 cells; generation of organoids with MEK inhibition) read?
**A.** batch of kolf2, no

**Q.** And the “Effect: organoid differentiation” value [2]?
**A.** Some improvement in bad

B1: DKK-1: Wnt inhibition at organoid stage, added at Matrigel embedding (protein, UniProt O94907 32-266, looked up)
Dickkopf-related protein 1: TLNSVLNSNAIKNLPPPLGGAAGHPGSAVSAAPGILYPGGNKYQTIDNYQPYPCAEDEECGTDEYCASPTRGGDAGVQICLACRKRRKRCMRHAMCCPGNYCKNGICVSSDQNHFRGEIEETITESFGNDHSTLDGYSRRTTLSSKMYHTKGQEGSVCLRSSDCASGLCCARHFWSKICKPVLKEGQVCTKHRRKGSHGLEIFQRCYCGEGLSCRIQKDHHQASNSSRLHTCQRH
**Q.** For B1, which “Effect: organoid morphology” value [1] is on record?
**A.** embedding stage improve
